Measurements from US4550186A, “Binuclear copper (II) carboxylates formed from amine-carboxyboranes” (Duke University, priority 1983, dated 1985).

Columns and labels:
[1] = target: T1, aspartate carbamyl transferase (Mus musculus, UniProt B2RQC6); assay: In vitro aspartate carbamyl transferase activity; assay type: biochemical; details: 0.25 to 1.0 mM
T1 construct: ATCase domain of CAD
Description: CF1 male mice (~30 g) were implanted with 2×10^6 Ehrlich ascites tumor cells, intraperitoneally on Day 0. Compound I was suspended by homogenation in 0.05% polysorbate.80-water and administered intraperitoneally at 10 and 20 mg/kg for 9 days to determine its effectiveness for inhibition of tumor growth. Mice were sacrificed on Day 10, and the ascites fluid was collected from the peritoneal cavity. The volume and ascrit (packed cell volume) were determined for each animal and the percent inhibition of tumor growth was calculated. For the metabolic studies, mice were treated on Days 8 and 9 with 10 mg/kg of Compound I, intraperitoneally. […]
Carbamyl phosphate synthetase activity was determined using the reaction medium of Kalman et al [Am. […] Citrulline formed from ornithine was measured at 490 nm by the method of Archibald [J. Biol. Chem., 156, 121 (1944)]. […] The ^14 CO2 generated in 15 min was trapped in 1M KOH and counted. Thymidylate synthetase activity was determined using a post-mitochondrial supernatant (9000 g×10 min) and 5 μCi of 5-^3 H-deoxyuridine monophosphate (14 Ci/mmol) according to the method of Kampf et al [ J. Med. Chem., 19, 903 (1976)]. ^14 C-Formate incorporation into purines was determined by the method of Spassova et al [Biochem. Pharmacol., 25, 923 (1976)] using 0.5 μCi of ^14 C-formic acid (52.0 mCi/mmol). […] The Rf value for xanthine monophosphate was scraped and counted. […]

Holtzman male rats = assay: Antihyperlipidemic screen in normal rats; assay type: in vivo, rat
Description: Compounds to be tested were suspended in 1% carboxymethylcellulose-water and administered to CF1 male mice (~25 g) intraperitoneally for 16 days or Holtzman male rats (~350 g) orally by an intubation needle for 16 days. On days 9 or 16, blood was obtained by tail vein bleeding and the serum separated by centrifugation for 3 min. The serum cholesterol levels were determined by a modification of the Liebermann-Burchard reaction as described in Ness et al, Clin. Chim. Acta, 10, 229 (1964). Serum was also collected on day 16 and the triglyceride content was determined by a commercial kit, The Fisher Hycel Triglyceride Test Kit.
Data are expressed in the Table 2-7 as percent of control ± the standard deviation. The probable significant level (P) between each test group and the control group was determined by the Student's "t" test.

[2] = target: T2, messenger ribonucleic acid polymerase (Mus musculus, UniProt P08775+Q8CFI7); assay: In vitro messenger ribonucleic acid polymerase activity; assay type: biochemical; details: 0.25 to 1.0 mM
T2 construct: enzymes isolated from nuclei; endogenous in cells; host or cells: Ehrlich ascites tumor cell nuclei, ammonium sulfate fraction
Description: (§1) CF1 male mice (~30 g) were implanted with 2×10^6 Ehrlich ascites tumor cells, intraperitoneally on Day 0. Compound I was suspended by homogenation in 0.05% polysorbate.80-water and administered intraperitoneally at 10 and 20 mg/kg for 9 days to determine its effectiveness for inhibition of tumor growth. Mice were sacrificed on Day 10, and the ascites fluid was collected from the peritoneal cavity. The volume and ascrit (packed cell volume) were determined for each animal and the percent inhibition of tumor growth was calculated. For the metabolic studies, mice were treated on Days 8 and 9 with 10 mg/kg of Compound I, intraperitoneally. The animal was sacrificed on Day 10 and the ascites fluid harvested. The in vitro metabolic studies were performed at […] final concentration of Compound I.
In vitro and in vivo nuclear deoxyribonucleic acid polymerase activity was determined on isolated Ehrlich ascites cell nuclei. The incubation was that described by Sawada et al [Can. Res., 34, 3341 (1974)] except that [methyl-^3 H] deoxythymidine triphosphate (82.4 Ci/mmol) was used. The acid insoluble nucleic acid was collected on GF/F filters and counted. Nuclear ribonucleic acid polymerase activities were determined on enzymes isolated from nuclei. […] The acid insoluble ribonucleic acid was collected on nitrocellulose filters and counted.

deoxyribonuclease = assay: In vitro deoxyribonuclease activity; assay type: biochemical, mouse; details: read-out: ID50, Deoxyribonuclease activity
Description: as §1

[3] = rats orally, 10.0 mg/kg, Day 16

T1 sequence (B2RQC6 2-2225): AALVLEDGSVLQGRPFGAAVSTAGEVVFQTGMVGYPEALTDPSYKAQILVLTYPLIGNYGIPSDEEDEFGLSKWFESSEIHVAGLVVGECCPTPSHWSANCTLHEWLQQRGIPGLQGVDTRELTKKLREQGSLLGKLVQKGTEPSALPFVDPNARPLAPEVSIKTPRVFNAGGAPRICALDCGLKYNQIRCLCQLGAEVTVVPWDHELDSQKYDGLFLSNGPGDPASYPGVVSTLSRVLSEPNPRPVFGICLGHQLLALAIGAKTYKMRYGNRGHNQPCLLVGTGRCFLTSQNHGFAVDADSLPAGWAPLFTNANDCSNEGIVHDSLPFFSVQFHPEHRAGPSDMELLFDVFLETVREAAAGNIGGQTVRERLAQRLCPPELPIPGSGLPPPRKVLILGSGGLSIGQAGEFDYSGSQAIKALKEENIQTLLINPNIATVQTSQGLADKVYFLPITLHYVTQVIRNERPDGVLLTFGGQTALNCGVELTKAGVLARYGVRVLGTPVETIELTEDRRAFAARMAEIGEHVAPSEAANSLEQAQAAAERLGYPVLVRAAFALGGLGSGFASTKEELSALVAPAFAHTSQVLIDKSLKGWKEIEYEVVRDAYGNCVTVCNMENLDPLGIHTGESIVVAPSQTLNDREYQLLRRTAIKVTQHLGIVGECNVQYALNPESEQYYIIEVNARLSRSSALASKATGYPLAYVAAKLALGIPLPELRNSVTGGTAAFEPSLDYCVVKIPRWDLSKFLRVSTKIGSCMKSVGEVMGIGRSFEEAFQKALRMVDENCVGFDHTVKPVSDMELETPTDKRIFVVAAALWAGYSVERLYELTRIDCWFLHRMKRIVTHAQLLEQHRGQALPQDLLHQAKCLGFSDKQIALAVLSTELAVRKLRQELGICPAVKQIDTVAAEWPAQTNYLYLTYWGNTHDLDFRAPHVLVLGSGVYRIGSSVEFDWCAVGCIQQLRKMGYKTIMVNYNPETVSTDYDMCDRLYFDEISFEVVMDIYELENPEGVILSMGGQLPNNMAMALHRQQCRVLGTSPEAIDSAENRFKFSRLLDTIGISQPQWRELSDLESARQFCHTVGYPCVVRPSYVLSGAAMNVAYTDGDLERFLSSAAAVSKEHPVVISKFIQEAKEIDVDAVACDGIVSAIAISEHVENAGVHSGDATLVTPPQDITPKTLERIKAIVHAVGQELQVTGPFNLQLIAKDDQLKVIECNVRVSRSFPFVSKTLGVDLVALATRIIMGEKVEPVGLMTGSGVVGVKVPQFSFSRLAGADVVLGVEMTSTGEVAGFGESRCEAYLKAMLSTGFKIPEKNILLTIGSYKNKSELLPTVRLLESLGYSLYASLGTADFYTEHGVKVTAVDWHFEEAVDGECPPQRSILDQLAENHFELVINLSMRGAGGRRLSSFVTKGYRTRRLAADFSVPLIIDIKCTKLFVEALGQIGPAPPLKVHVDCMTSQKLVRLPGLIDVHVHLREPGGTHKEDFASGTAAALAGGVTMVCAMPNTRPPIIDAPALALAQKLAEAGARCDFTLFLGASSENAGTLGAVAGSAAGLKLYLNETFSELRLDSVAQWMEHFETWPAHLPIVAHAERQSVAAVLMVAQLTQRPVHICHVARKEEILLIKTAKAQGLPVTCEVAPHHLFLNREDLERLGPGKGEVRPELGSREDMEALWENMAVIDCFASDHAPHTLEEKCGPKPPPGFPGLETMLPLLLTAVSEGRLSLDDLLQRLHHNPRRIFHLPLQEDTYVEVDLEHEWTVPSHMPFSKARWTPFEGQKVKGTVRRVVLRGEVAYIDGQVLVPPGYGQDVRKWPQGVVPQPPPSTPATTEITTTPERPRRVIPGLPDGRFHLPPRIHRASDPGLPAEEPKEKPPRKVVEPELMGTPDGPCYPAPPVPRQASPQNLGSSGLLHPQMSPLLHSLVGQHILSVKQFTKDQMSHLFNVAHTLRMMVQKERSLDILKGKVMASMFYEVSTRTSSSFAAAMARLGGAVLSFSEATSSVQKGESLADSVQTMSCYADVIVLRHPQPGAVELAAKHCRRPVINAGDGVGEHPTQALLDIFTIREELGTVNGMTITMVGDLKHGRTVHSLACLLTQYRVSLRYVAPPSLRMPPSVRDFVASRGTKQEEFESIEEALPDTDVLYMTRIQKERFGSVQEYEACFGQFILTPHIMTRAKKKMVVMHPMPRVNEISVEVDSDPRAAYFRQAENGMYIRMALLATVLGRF

## {Cu[(CH3)3 N.BH2 CO2 ]2.(CH3)3 N.BH2 COOH} [Compound I]
[1]
  aspartate carbamyl transferase inhibition: not inhibited
Holtzman male rats; rats orally, 10.0 mg/kg, Day 9
  Serum Cholesterol: 63 ± 5 % Control
Holtzman male rats; [3]
  Serum Cholesterol: 65 ± 5 % Control
  Serum Triglyceride: 36 ± 4 % Control
Holtzman male rats; rats, 10 mg/kg/day
  Serum triglyceride levels reduced: 64%
  reduction in serum cholesterol levels: 37%
[2]
  messenger ribonucleic acid polymerase inhibition: not inhibited
deoxyribonuclease
  IC50: 682 µM
